The record followed here is patent US20240376097A1, “BCL-2 Inhibitor” (BeiGene Ltd., priority 2020, published 2024).

The target in data set [1] is Recombinant human Bcl-2 protein (Homo sapiens (Human), UniProt P10415). The data set is described as follows: Bcl-2 TR-FRET Assay. In kind it is binding. The procedure, abridged: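 0.05 nM Bcl-2 pre-incubated 0.5 h at room temperature with 10-point compound dilutions (top final 1, 0.1, 0.02 or 0.01 uM) in 20 mM potassium phosphate pH 7.5, 50 mM NaCl, 1 mM EDTA, 0.05% Tween-20, 0.01% BSA; FITC-Bak peptide (0.5 nM) and anti-6His Tb cryptate added, 1 h. IC50 from four-parameter logistic fit.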

Data set [2] has as its target recombinant human Bcl-2-G101V protein (Homo sapiens (Human), UniProt P10415, G101V). The data set is described as follows: Bcl-2-G101V TR-FRET Assay. In kind it is binding. Particulars: Bcl-2 G101V mutant, TR-FRET; read-out: Biochemical assay (IC50, nM) Bcl-2 G101V. An outline of the steps: (§1)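 Ex337/em490 & 520 nm TR-FRET; % inhibition of Bcl-2-G101V–ligand interaction from 490:520 ratio vs. increasing compound conc.; IC50 by 4-parameter logistic fit.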

For data set [3], the system named is recombinant human Bcl-2-G101V protein. Briefly: Bcl-2-G101V TR-FRET Assay. In kind it is binding. The conditions noted are these: for Ratio of Bcl-2 G101V/WT: ratio of biochemical IC50 Bcl-2 G101V / Bcl-2 WT. The procedure, abridged:
as §1
In general terms: In TR-FRET formats the signal depends on donor and acceptor labels being close together.

The subject of data set [4] is RS4;11 (BCL-2 dependent acute lymphoblastic leukemia cell line). Briefly: RS4;11 Cell Proliferation Assay. Format: cell-based. The conditions noted are these: Homo sapiens, RS4;11 cells, read-out: Cellular proliferation assay (IC50, nM) RS4. An outline of the steps: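 RS4;11 cells, 50,000 per well in RPMI-1640 with 10% FBS, treated 48 h at 37 °C with a 10-point dilution series topping at 1 μM. Viability read by CellTiter-Glo ATP luminescence; mean IC50 reported.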

A short description of data set [5]: Metabolic Stability Study, liver microsome incubation (mouse). Format: in vitro ADME. Particulars: mouse liver microsomes 0.5 mg/mL, 1 μM compound, NADPH; for half-life at 1 μM: NA^# = very stable, beyond the detection limits, read-out: T1/2 (min) mouse; for microsomal CLint at 1 μM: read-out: CLint (μL × min^−1 × mg^−1) mouse. On the procedure: (§2) Biological Example: Metabolic Stability Study
(§3) The metabolic stability of some compounds was evaluated by using the liver microsome incubation system in vitro. Briefly, the test compounds at 1 μM, were incubated with 0.5 mg/mL liver microsomes from different species (human, dog, rat and mouse) with an NADPH regenerating system at 37° C. Samples were quenched at three time points (0, 30, 60 min) with organic solvent containing internal standards, and the supernatant was analyzed for parent loss via LC-MS/MS. Midazolam was used as the positive control to validate the incubation system.
(§4) where Cprotein is the microsomal protein concentration in the incubation system.
(§5) The value of CLint and T1/2 of Example F132b in WO2019210818 and representative compounds of the disclosure were determined, and the results are shown in Table 5.
(Liver microsomes are vesicles of endoplasmic reticulum, rich in cytochrome P450 enzymes.)

Data set [6] has as its target recombinant human Bcl-2 D103Y protein (Homo sapiens (Human), UniProt P10415, D103Y). The data set is described as follows: Bcl-2-D103Y Biochemical Assay (TR-FRET). The conditions noted are these: for IC50: TR-FRET, FITC labeled Bak peptide; for Ratio of Bcl-2 D103Y/Bcl-2 WT: ratio of IC50. In kind it is binding. An outline of the steps:
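Recombinant human Bcl-2 D103Y binding to its ligand measured by TR-FRET (ex 337 nm, em 490/520 nm) with increasing compound concentrations. Percent inhibition from the 490/520 nm ratio; IC50 from four-parameter logistic fit.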

Data set [7] can be described thus: Metabolic Stability Study, liver microsome incubation (human). In kind it is in vitro ADME. The conditions noted are these: human liver microsomes 0.5 mg/mL, 1 μM compound, NADPH; for half-life at 1 μM: NA^# = very stable, beyond the detection limits, read-out: T1/2 (min) Human; for microsomal CLint at 1 μM: read-out: CLint (μL × min^−1 × mg^−1) Human. On the procedure: as §2, §3, §4, §5

Setting [8] is: Bcl-2 wild type, TR-FRET, read-out: Biochemical assay (IC50, nM) Bcl-2 WT.
The mark [9] stands for this setting: wild type Bcl-2, unit inferred, read-out: Bcl-2 WT.

Where two headings read alike, the source gives them in different places.

For `COc1ccc(CN2CCN(C3CC4(CCN(c5ccc(C(=O)NS(=O)(=O)c6ccc(NCC7(F)CCOCC7)c([N+](=O)[O-])c6)c(Oc6cnc7[nH]ccc7c6)c5)CC4)C3)[C@H](c3ccccc3C(C)C)C2)cc1` (single isomer, unassigned) [Example 32, (R or S)-2-((1H-pyrrolo[2,3-b]pyridin-5-yl)oxy)-N-((4-(((4-fluorotetrahydro-2H-pyran-4-yl)methyl)amino)-3-nitrophenyl)sulfonyl)-4-(2-(2-(2-isopropylphenyl)-4-(4-methoxybenzyl)piperazin-1-yl)-7-azaspiro[3.5]nonan-7-yl)benzamide], the IC50 is 0.096 nM in data set [1] (setting [8]); 0.096 nM in data set [1] (setting [9]); 0.28 nM in data set [2]; 0.18 nM in data set [4]; 0.11 nM in data set [6]. The “Ratio of Bcl-2 G101V/WT” value in data set [3] is reported as 2.9. The half-life at 1 μM in data set [5] turned out to be 202 min; in data set [7] it was 533 min. Further, the microsomal CLint at 1 μM in data set [5] is 6.8 µL/min/mg; in data set [7], 2.6 µL/min/mg. For the same molecule, the “Ratio of Bcl-2 D103Y/Bcl-2 WT” value in data set [6] turned out to be 1.1.
In the case of `CC(C)c1ccccc1[C@@H]1CN(Cc2ccc(F)c(F)c2)CCN1C1CC2(CCN(c3ccc(C(=O)NS(=O)(=O)c4ccc(NC[C@H]5CC[C@](C)(O)CC5)c([N+](=O)[O-])c4)c(Oc4cnc5[nH]ccc5c4)c3)CC2)C1` (single isomer, unassigned) [Example 52a, 2-((1H-pyrrolo[2,3-b]pyridin-5-yl)oxy)-4-(2-((R or S)-4-(3,4-difluorobenzyl)-2-(2-isopropylphenyl)piperazin-1-yl)-7-azaspiro[3.5]nonan-7-yl)-N-((4-((((1r,4r)-4-hydroxy-4-methylcyclohexyl)methyl)amino)-3-nitrophenyl)sulfonyl)benzamide], the IC50 in data set [1] (setting [8]) was determined as 0.16 nM; in data set [1] (setting [9]), 0.16 nM; in data set [2], 0.68 nM; in data set [4], 0.25 nM; in data set [6], 0.37 nM. In addition, the “Ratio of Bcl-2 G101V/WT” value in data set [3] was 4.2. Further, the “Ratio of Bcl-2 D103Y/Bcl-2 WT” value in data set [6] stood at 2.4.
As for `COc1ccc(CN2CCN(C3CC4(CCN(c5ccc(C(=O)NS(=O)(=O)c6ccc(NC[C@H]7CC[C@](C)(O)CC7)c([N+](=O)[O-])c6)c(Oc6cnc7[nH]ccc7c6)c5)CC4)C3)[C@H](c3ccccc3C(C)C)C2)cc1` [Example 19a, 2-((1H-pyrrolo[2,3-b]pyridin-5-yl)oxy)-N-((4-((((1r,4r)-4-hydroxy-4-methylcyclohexyl)methyl)amino)-3-nitrophenyl)sulfonyl)-4-(2-((R)-2-(2-isopropylphenyl)-4-(4-methoxybenzyl)piperazin-1-yl)-7-azaspiro[3.5]nonan-7-yl)benzamide], the IC50 in data set [1] (setting [8]) came out at 0.057 nM; in data set [1] (setting [9]), 0.057 nM; in data set [2] it was 0.18 nM; in data set [4], 0.15 nM; in data set [6], 0.15 nM. Also, the “ratio of IC50 of Bcl-2 G101V/Bcl-2 wt, compared with Example F132b in WO2019210828 and ABT-199 (venetoclax)” value in data set [3] (comparison in words) is on record as “much lower”. The “Ratio of Bcl-2 G101V/WT” value in data set [3] is on record as 3.2. Besides, the half-life at 1 μM in data set [5] was 346 min. For the same molecule, the figures for the microsomal CLint at 1 μM in data set [5] and in data set [7] were 4 µL/min/mg and under 1 µL/min/mg, respectively. In addition, in data set [6] (comparison in words), the “ratio of Bcl-2 D103Y/Bcl-2 wt, compared with F91b in WO2019210828” value is listed as “significantly lower”. The “Ratio of Bcl-2 D103Y/Bcl-2 WT” value in data set [6] came out at 2.6.
On to `CC(C)c1ccccc1C1CN(Cc2ccc(F)cc2)CCN1C1CC2(CCN(c3ccc(C(=O)NS(=O)(=O)c4ccc(NC[C@H]5CC[C@](C)(O)CC5)c([N+](=O)[O-])c4)c(Oc4cnc5[nH]ccc5c4)c3)CC2)C1` (stereo partly drawn) [Example 28, 2-((1H-pyrrolo[2,3-b]pyridin-5-yl)oxy)-4-(2-(4-(4-fluorobenzyl)-2-(2-isopropylphenyl)piperazin-1-yl)-7-azaspiro[3.5]nonan-7-yl)-N-((4-((((1r,4r)-4-hydroxy-4-methylcyclohexyl)methyl)amino)-3-nitrophenyl)sulfonyl)benzamide], for which the IC50 in data set [1] (setting [8]) turned out to be 0.23 nM; in data set [1] (setting [9]), 0.23 nM; in data set [2] it was 0.82 nM; in data set [4] it was 0.39 nM; in data set [6], 0.34 nM. Further, the “Ratio of Bcl-2 G101V/WT” value in data set [3] turned out to be 3.6. Further, the half-life at 1 μM came to 200 min in data set [5] and 135 min in data set [7]. Besides, the microsomal CLint at 1 μM came to 6.9 µL/min/mg in data set [5] and 10.3 µL/min/mg in data set [7]. The “Ratio of Bcl-2 D103Y/Bcl-2 WT” value in data set [6] is reported as 1.5.
As to `CC(C)c1ccccc1C1CN(Cc2ccc(Cl)cc2)CCN1C1CC2(CCN(c3ccc(C(=O)NS(=O)(=O)c4ccc(NC[C@H]5CC[C@](C)(O)CC5)c([N+](=O)[O-])c4)c(Oc4cnc5[nH]ccc5c4)c3)CC2)C1` (stereo partly drawn) [Example 29, 2-((1H-pyrrolo[2,3-b]pyridin-5-yl)oxy)-4-(2-(4-(4-chlorobenzyl)-2-(2-isopropylphenyl)piperazin-1-yl)-7-azaspiro[3.5]nonan-7-yl)-N-((4-((((1r,4r)-4-hydroxy-4-methylcyclohexyl)methyl)amino)-3-nitrophenyl)sulfonyl)benzamide], the IC50 came out at 0.29 nM in data set [1] (setting [8]); 0.29 nM in data set [1] (setting [9]); 1.5 nM in data set [2]; 0.43 nM in data set [4]; 0.57 nM in data set [6]. The “Ratio of Bcl-2 G101V/WT” value in data set [3] was determined as 5.2. Moreover, the half-life at 1 μM is 2360 min in data set [5] and 245 min in data set [7]. The results for the microsomal CLint at 1 μM in data set [5] and in data set [7] were 0.6 µL/min/mg and 5.6 µL/min/mg, respectively. For the same molecule, the “Ratio of Bcl-2 D103Y/Bcl-2 WT” value in data set [6] turned out to be 1.9.
On to `COc1ccc(CN2CCN(C3CC4(CCN(c5ccc(C(=O)NS(=O)(=O)c6ccc(NC[C@H]7CC[C@](C)(O)CC7)c([N+](=O)[O-])c6)c(Oc6cnc7[nH]ccc7c6)c5)CC4)C3)[C@H](c3ccccc3C(C)C)C2)cc1OC` [Example 81a, 2-((1H-pyrrolo[2,3-b]pyridin-5-yl)oxy)-4-(2-((R)-4-(3,4-dimethoxybenzyl)-2-(2-isopropylphenyl)piperazin-1-yl)-7-azaspiro[3.5]nonan-7-yl)-N-((4-((((1r,4r)-4-hydroxy-4-methylcyclohexyl)methyl)amino)-3-nitrophenyl)sulfonyl)benzamide], for which the IC50 in data set [1] (setting [8]) came to 0.038 nM; in data set [2], 0.075 nM; in data set [4] it was 0.146 nM. In addition, the “Ratio of Bcl-2 G101V/WT” value in data set [3] is 2.0. For the same molecule, in data set [5], the half-life at 1 μM is 219 min. Further, the microsomal CLint at 1 μM in data set [5] is 6.32 µL/min/mg; in data set [7], under 1 µL/min/mg.
Consider `COc1cc(CN2CCN(C3CC4(C3)CN(c3ccc(C(=O)NS(=O)(=O)c5ccc(NC[C@H]6CC[C@](C)(O)CC6)c([N+](=O)[O-])c5)c(Oc5cnc6[nH]cc(F)c6c5)c3)C4)[C@H](c3ccccc3C(C)C)C2)cc(F)c1OC` [Example 230, 2-((3-fluoro-1H-pyrrolo[2,3-b]pyridin-5-yl)oxy)-4-(6-((R)-4-(3-fluoro-4,5-dimethoxybenzyl)-2-(2-isopropylphenyl)piperazin-1-yl)-2-azaspiro[3.3]heptan-2-yl)-N-((4-((((1r,4r)-4-hydroxy-4-methylcyclohexyl)methyl)amino)-3-nitrophenyl)sulfonyl)benzamide], for which the IC50 in data set [1] (setting [8]) was determined as 0.19 nM; in data set [2], 0.52 nM; in data set [4], 0.1 nM. For the same molecule, in data set [3], the “Ratio of Bcl-2 G101V/WT” value was 2.8. For the same molecule, the half-life at 1 μM in data set [5] amounted to 183 min; in data set [7], 373 min. For the same molecule, the microsomal CLint at 1 μM in data set [5] amounted to 7.6 µL/min/mg; in data set [7] it was 3.7 µL/min/mg.
In the case of `COc1cc(CN2CCN(C3CC4(CCN(c5ccc(C(=O)NS(=O)(=O)c6ccc(NC[C@H]7CC[C@](C)(O)CC7)c([N+](=O)[O-])c6)c(Oc6cnc7[nH]ccc7c6)c5)CC4)C3)[C@H](c3ccccc3C(C)C)C2)ccc1C1CC1` [Example 257], the results for the IC50 in data set [1] (setting [8]), in data set [2] and in data set [4] were 0.4 nM, 0.99 nM and 0.15 nM, respectively. In addition, in data set [3], the “Ratio of Bcl-2 G101V/WT” value is 2.5. Besides, the figures for the half-life at 1 μM in data set [5] and in data set [7] were 254 min and 372 min, respectively. For the same molecule, the microsomal CLint at 1 μM in data set [5] came out at 5.5 µL/min/mg; in data set [7] it was 3.7 µL/min/mg.
